Test results published in US20170112896A1, “SMALL MOLECULE RAC OR RHO INHIBITORS” (Ohio State Innovation Foundation, priority 2014, published 2017).
Where “and” joins values, the source holds several entries; their conditions need not be identical. Identical values can stand only once. Square brackets hold non-standard residues; d marks the D form. Peptide text beside a SMILES is read from it. * marks the point of attachment. Lys(5-FITC)NH2 = NC(=O)[C@H](CCCCNC(=S)Nc1ccc2c(c1)C(=O)OC21c2ccc(O)cc2Oc2cc(O)ccc21)N*; FITC = O=C1OC2(c3ccc(O)cc3Oc3cc(O)ccc32)c2ccc(NC(=S)*)cc21; Phe(3,4-F2) = N[C@@H](Cc1ccc(F)c(F)c1)C(=O)O; Phe(4-F) = N[C@@H](Cc1ccc(F)cc1)C(=O)O; d2Nal = N[C@H](Cc1ccc2ccccc2c1)C(=O)O; NMeL = CN[C@@H](CC(C)C)C(=O)O; dNle = CCCC[C@@H](N)C(=O)O; Abu = CC[C@H](N)C(=O)O

Key:
K-Ras(G12V) = biological target: T1, K-Ras(G12V) (Homo sapiens, UniProt P01116, G12V); experiment: Fluorescence anisotropy (FA) binding of FITC-labeled cyclic peptides to K-Ras; details: Table 1, resynthesized FITC-labeled library hits, read-out: KD (μM), affinity for K-Ras
T1 construct: The G12V mutant K-Ras (amino acids 1-185) was recombinantly fused to glutathione 5-transferase (GST) at its N-terminus; GST (N, cleaved yes); made in house; host or cells: Escherichia coli BL21
Method: The cells were grown at 37° C. in Luria broth supplemented with 0.05 mg/mL kanamycin to an OD600 of 0.6 when protein expression was induced by addition of IPTG for a final concentration of 1 mM. After 5 h of incubation at 30° C., the cells were harvested by centrifugation. The cell pellets were lysed by sonication in a lysis buffer (40 mM Tris-HCl, 150 mM NaCl, 0.5% Triton X-100, 5 mM (3-mercaptoethanol, pH 8.0) containing a protease inhibitor cocktail tablets (Sigma). The crude cell lysate was loaded onto a glutathione-Sepharose 4B column (GE Healthcare) and the bound GST-K-Ras was eluted with an elution buffer (50 mM Tris, pH 8.0, 10 mM glutathione). After buffer exchange into PBS, the protein was quickly frozen and stored at −80° C. To generate K-Ras without the GST tag, the GST-K-Ras protein (2 mg in PBS) was treated with 20 units of thrombin (GE Healthcare) for 16 h at 4° C. The reaction mixture was passed through a glutathione-Sepharose 4B column to remove the released GST and the resulting K-Ras protein was stored at −80° C.
(§2) For cyclic peptides derived from single library beads (library screening), K-Ras protein (non-GST fusion, 0-20 μM) was incubated with the TMR-labeled peptide (50 or 100 nM) in 20 μL, of the blocking buffer for 2.5 h at 24° C. The FA values were measured on a Molecular Devices Spectramax M5 spectrofluorimeter, with excitation and emission wavelengths at 545 and 585 nm, respectively. Equilibrium dissociation constants (KD) were determined by plotting the FA values as a function of K-Ras concentration and fitting the data to the equation
(§3) where Y is the measured anisotropy at a given K-Ras concentration x; L is the peptide concentration; Qb/Qf is the correction fact for dye-protein interaction; Amax is the maximum anisotropy at saturating K-Ras concentration; and Amin is the minimum anisotropy. FA analyses with resynthesized FITC-labeled peptides were similarly carried oμL, except that the excitation and emission wavelengths were at 494 and 520 nm, respectively.

[1] = biological target: T2, Ras(G12V)-Raf RBD interaction (Homo sapiens, UniProt P01116, G12V); experiment: HTRF assay, inhibition of Ras-Raf RBD interaction; assay type: binding; details: for increase of Ras binding affinity by substitution: relative to parent 9A5/9A6
T2 construct: The G12V mutant K-Ras (amino acids 1-185) was recombinantly fused to glutathione 5-transferase (GST) at its N-terminus; GST (N, cleaved yes); made in house; host or cells: Escherichia coli BL21
Method: Recombinant HA-tagged K-Ras (no GST, 50 nM), GST-Raf RBD (50 nM each), a monoclonal anti-HA antibody labeled with acceptor d2 (2 μg/mL), a monoclonal anti-GST antibody labeled with donor Tb (0.25 μg/mL) (Cisbio), and increasing concentrations of cyclic peptide (0-20 μM) were mixed in PBS (total volume of 20 μL) in a 384-well plate. The plate was incubated overnight at 4° C. and the HTRF signal was measured on a Molecular Devices Spectramax M5 or a Tecan infinite M1000 Pro plate reader. The data were analyzed by Prism 6.0 from Graphpad Software, Inc. (La Jolla, Calif.) and IC50 values were obtained by fitting the data to dose-response-inhibition curve.

H1299 lung cancer cells = assay type: cell-based; details: for IC50: 72 h; for anti-proliferative activity against lung cancer cells (in words): MTT assay
Method: MTT assays (Mosmann, T. (1983) J. Immunol. Methods 65:55) were performed with H1299 lung cancer cells. One hundred μL of H1299 cells (0.5×10^5 cells/mL) were seeded in each well of a 96-well culture plate and allowed to grow overnight in Advanced RPMI medium supplemented with 10% fetal bovine serum (FBS) and 1% penicillin-streptomycin. Varying concentrations of cyclic peptide (0-25 μM) were added to the each well and the cells were incubated at 37° C. with 5% CO2 for 72 hours. Ten μL of a MTT stock solution (Roche) was added into each well. The plate was incubated at 37° C. for 4 h. Then 100 μL of SDS-HCl solubilizing buffer was added into each well, and the resulting solution was mixed thoroughly. The plate was incubated at 37° C. overnight. The absorbance of the formazan product was measured at 570 nm using a Molecular Devices Spectramax M5 plate reader. Each experiment was performed in triplicates and the cells without any peptide added were treated as control.

H-Ras(WT) = biological target: T3, H-Ras(WT) (Homo sapiens, UniProt P01112); experiment: FA binding of FITC-9A5 to H-Ras; details: FITC-labeled peptide
T3 construct: purchased Origene (Rockville, Md.)
From the text: (§1) Reagents for peptide synthesis were purchased from Peptides International (Louisville, Ky.), NovaBiochem (La Jolla, Calif.), Anaspec (San Jose, Calif.), Chem-Impex International Inc. (Wood Dale, Ill.), or Aapptec (Lousiville, Ky.). N-Hydroxysuccinimidyl biotin was purchased from Chem-Impex International (Wood Dale, Ill.) and N-(9-fluorenylmethoxycarbonyloxy)succinimide (Fmoc-OSu) from Advanced ChemTech. Phenyl isothiocyanate (PITC), isopropyl13-D-1-thiogalactopyranoside (IPTG), protease inhibitor cocktail tablets, ampicillin and kanamycin were purchased from Sigma-Aldrich. Cell proliferation kit (MTT) was purchased from Roche (Indianapolis, Ind.). Cell culture media, fetal bovine serum, penicillin-streptomycin, 0.25% trypsin-EDTA, DPBS (2.67 mM potassium chloride, 1.47 mM potassium phosphate monobasic, 137 mM sodium chloride, 8.06 mM sodium phosphate dibasic), streptavidin-coated Dynabeads M-280, Texas red N-hydroxysuccinimide ester, and tetramethylrhodamine (TMR) azide were purchased from Invitrogen (Carlsbad, Calif.). Anti-GST-Tb and Anti-HA d2 antibodies were purchased from Cisbio (Bedford, Mass.). Recombinant K-Ras WT, H-Ras WT, Rac1, RhoA and CDC42 were purchased from Origene (Rockville, Md.). Solvents and other chemical reagents were purchased from Sigma-Aldrich or VWR (West Chester, Pa.).

Ras-GPPNP = Ras-GPPNP (Homo sapiens, UniProt P01116, G12V); experiment: biochemical
Method: (§4) To prepare Ras-GTP, purified K-Ras was incubated with 20 mM EDTA plus 2 mM GTP in PBS overnight at 4° C. After addition of 40 mM of MgCl2, the protein was dialyzed against PBS.
as §2
(§5) FA analyses with resynthesized FITC-labeled peptides were similarly carried oμL, except that the excitation and emission wavelengths were at 494 and 520 nm, respectively.

bovine serum albumin = biological target: T4, bovine serum albumin (Bos taurus, UniProt P02769); experiment: FA binding of FITC-9A5 to control protein BSA
T4 construct: from tissue; host or cells: bovine serum (from the name only)
Method: The FA values were measured on a Molecular Devices Spectramax M5 spectrofluorimeter, with excitation and emission wavelengths at 545 and 585 nm, respectively. Equilibrium dissociation constants (KD) were determined by plotting the FA values as a function of K-Ras concentration and fitting the data to the equation
as §3

Ras-GTP = Ras-GTP (Homo sapiens, UniProt P01116, G12V); experiment: biochemical
Method: as §4, §2, §5

Rac1 = biological target: T5, Rac1 (Homo sapiens, UniProt P63000); experiment: FA binding of FITC-9A5 to recombinant Rac1
T5 construct: purchased Origene (Rockville, Md.)
From the text: as §1

RhoA = biological target: T6, RhoA (Homo sapiens, UniProt P61586); experiment: FA binding of FITC-9A5 to recombinant RhoA
T6 construct: purchased Origene (Rockville, Md.)
From the text: as §1

Ras-GDP = Ras-GDP (Homo sapiens, UniProt P01116, G12V); experiment: biochemical
Chain of Ras-GDP (P01116 1-185 isoform P01116-2 G12V): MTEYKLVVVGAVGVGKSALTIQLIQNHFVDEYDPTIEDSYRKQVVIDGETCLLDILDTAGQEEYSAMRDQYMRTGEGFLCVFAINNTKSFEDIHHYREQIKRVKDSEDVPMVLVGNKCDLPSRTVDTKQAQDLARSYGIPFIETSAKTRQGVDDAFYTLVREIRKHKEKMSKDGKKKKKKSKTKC
Method: as §4, §2, §5

T2 sequence (P01116 1-185 isoform P01116-2 G12V): as above
T1 sequence (P01116 1-185 isoform P01116-2 G12V): as above
T4 sequence (P02769 25-607): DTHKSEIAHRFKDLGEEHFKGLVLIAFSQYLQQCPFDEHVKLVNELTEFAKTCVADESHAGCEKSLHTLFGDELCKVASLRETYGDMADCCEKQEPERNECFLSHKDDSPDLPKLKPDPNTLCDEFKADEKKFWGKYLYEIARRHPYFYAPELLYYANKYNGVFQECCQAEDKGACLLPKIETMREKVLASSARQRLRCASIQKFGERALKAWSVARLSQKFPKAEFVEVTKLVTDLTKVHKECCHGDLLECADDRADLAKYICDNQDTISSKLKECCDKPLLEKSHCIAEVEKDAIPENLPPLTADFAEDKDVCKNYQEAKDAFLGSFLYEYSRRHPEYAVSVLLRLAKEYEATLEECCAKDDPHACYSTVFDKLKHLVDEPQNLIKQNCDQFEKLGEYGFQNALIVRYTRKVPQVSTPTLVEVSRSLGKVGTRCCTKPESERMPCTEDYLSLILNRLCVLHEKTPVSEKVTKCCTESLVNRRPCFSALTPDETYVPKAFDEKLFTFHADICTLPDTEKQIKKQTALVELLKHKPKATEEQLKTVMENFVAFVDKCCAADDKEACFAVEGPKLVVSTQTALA
T6 sequence (P61586 whole entry): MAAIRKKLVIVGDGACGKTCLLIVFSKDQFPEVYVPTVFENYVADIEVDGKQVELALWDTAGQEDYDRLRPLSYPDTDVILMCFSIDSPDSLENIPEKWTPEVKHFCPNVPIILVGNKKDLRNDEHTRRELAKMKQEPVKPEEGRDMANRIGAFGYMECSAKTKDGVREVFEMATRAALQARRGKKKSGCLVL
Chain of Ras-GPPNP (P01116 1-185 isoform P01116-2 G12V): as the sequence (P01116 1-185 isoform P01116-2 G12V) above
Chain of Ras-GTP (P01116 1-185 isoform P01116-2 G12V): as above
T3 sequence (P01112 whole entry): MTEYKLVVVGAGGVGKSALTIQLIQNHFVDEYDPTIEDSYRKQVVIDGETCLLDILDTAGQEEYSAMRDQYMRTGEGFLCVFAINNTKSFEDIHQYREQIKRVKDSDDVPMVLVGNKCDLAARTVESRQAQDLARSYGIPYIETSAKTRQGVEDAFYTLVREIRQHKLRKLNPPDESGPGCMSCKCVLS

CC(C)C[C@H]1C(=O)N[C@@H](CCC(=O)N[C@@H](CCCCNC(=S)Nc2ccc3c(c2)C(=O)OC32c3ccc(O)cc3Oc3cc(O)ccc32)C(N)=O)C(=O)N[C@@H](CCCNC(=N)N)C(=O)N[C@@H](CCCNC(=N)N)C(=O)N[C@H](Cc2ccc3ccccc3c2)C(=O)N[C@@H](CCCNC(=N)N)C(=O)N[C@@H](Cc2ccc(F)cc2)C(=O)N[C@H](CC(N)=O)C(=O)N[C@H](Cc2ccc3ccccc3c2)C(=O)N1C [Cyclorasin 3A] (cyclo(E(Lys(5-FITC)NH2)RR[d2Nal]R[Phe(4-F)][dN][d2Nal][NMeL]))
Kd (K-Ras(G12V)): 0.91 ± 0.23 µM

CC(C)[C@H]1NC(=O)[C@H](Cc2ccc(O)cc2)NC(=O)[C@H](CCCNC(=N)N)NC(=O)[C@H](Cc2ccc(F)cc2)NC(=O)[C@H](CCCNC(=N)N)NC(=O)[C@@H](Cc2ccc3ccccc3c2)NC(=O)[C@H](CCCNC(=N)N)NC(=O)[C@H](CCCNC(=N)N)NC(=O)[C@H](CCC(=O)N[C@@H](CCCCNC(=S)Nc2ccc3c(c2)C(=O)OC32c3ccc(O)cc3Oc3cc(O)ccc32)C(N)=O)NC(=O)[C@H](Cc2ccc(F)cc2)NC1=O [Cyclorasin 7A] (cyclo(E(Lys(5-FITC)NH2)RR[d2Nal]R[Phe(4-F)]RY[dV][Phe(4-F)]))
Kd (K-Ras(G12V)): 0.88 ± 0.27 µM

CCCC[C@H]1NC(=O)[C@H](Cc2ccc(F)cc2)NC(=O)[C@H](CCCNC(=N)N)NC(=O)[C@@H](Cc2ccc3ccccc3c2)NC(=O)[C@H](CCCNC(=N)N)NC(=O)[C@H](CCCNC(=N)N)NC(=O)[C@@H](CCCNC(=N)N)NC(=O)[C@@H](C)NC(=O)[C@H]([C@@H](C)O)NC(=O)[C@H](Cc2c[nH]c3ccccc23)NC(=O)[C@H](CCC(N)=O)NC1=O [Cyclorasin 9A6] (cyclo(WT[dA][dR]RR[d2Nal]R[Phe(4-F)][dNle]Q))
higher potency than 9A1 against K-Ras ([1]; relative to 9A1): 3 fold | cell permeability / intracellular fluorescence (A549 lung cancer cells): improved cell permeability

CCCC[C@H]1NC(=O)[C@H](Cc2ccc(F)c(F)c2)NC(=O)[C@H](CCCNC(=N)N)NC(=O)[C@@H](Cc2ccc3ccccc3c2)NC(=O)[C@H](CCCNC(=N)N)NC(=O)[C@H](CCCNC(=N)N)NC(=O)[C@H](CCCNC(=N)N)NC(=O)[C@@H](C)NC(=O)[C@H]([C@@H](C)O)NC(=O)[C@H](Cc2c[nH]c3ccccc23)NC(=O)[C@H](CCC(N)=O)NC1=O [Cyclorasin 9A43] (cyclo(WT[dA]RRR[d2Nal]R[Phe(3,4-F2)][dNle]Q))
increase of Ras binding affinity by substitution [1]: 2 fold | IC50 (H1299 lung cancer cells): 6900 ± 800 nM

C[C@H]1NC(=O)[C@H]([C@@H](C)O)NC(=O)[C@H](Cc2c[nH]c3ccccc23)NC(=O)[C@H](CCC(N)=O)NC(=O)[C@@H](CCCNC(=N)N)NC(=O)[C@H](Cc2ccc(F)cc2)NC(=O)[C@H](CCCNC(=N)N)NC(=O)[C@@H](Cc2ccc3ccccc3c2)NC(=O)[C@H](CCCNC(=N)N)NC(=O)[C@H](CCCNC(=N)N)NC(=O)[C@H](CCCNC(=N)N)NC1=O [Cyclorasin 9A45] (cyclo(WT[dA]RRR[d2Nal]R[Phe(4-F)][dR]Q))
increase of Ras binding affinity by substitution [1]: 4 fold | IC50 (H1299 lung cancer cells): 8900 ± 2100 nM

CCCC[C@H]1NC(=O)[C@H](Cc2ccc(F)cc2)NC(=O)[C@H](CCCNC(=N)N)NC(=O)[C@@H](Cc2ccc3ccccc3c2)NC(=O)[C@H](CCCNC(=N)N)NC(=O)[C@H](CCCNC(=N)N)NC(=O)[C@H](CCC(=O)N[C@@H](CCCCNC(=S)Nc2ccc3c(c2)C(=O)OC32c3ccc(O)cc3Oc3cc(O)ccc32)C(N)=O)NC(=O)[C@@H](C)NC(=O)[C@H]([C@@H](C)O)NC(=O)[C@H](Cc2c[nH]c3ccccc23)NC(=O)[C@@H](CO)NC1=O [Cyclorasin 9A, (Arg-Arg-nal-Arg-Fpa-nle-ser-Trp-Thr-ala-Gln)] (cyclo(RR[d2Nal]R[Phe(4-F)][dNle][dS]WT[dA]E(Lys(5-FITC)NH2)))
IC50 (H1299 lung cancer cells): 18000 ± 4000 nM | anti-proliferative activity against lung cancer cells (in words) (H1299 lung cancer cells): weak anti-proliferative activity | cell permeability / intracellular fluorescence (A549 lung cancer cells): cell permeable

C[C@H]1NC(=O)[C@H](CCCNC(=N)N)NC(=O)[C@H](Cc2c[nH]c3ccccc23)NC(=O)[C@H](CCCNC(=N)N)NC(=O)[C@H](Cc2ccc(F)cc2)NC(=O)[C@H](CCCNC(=N)N)NC(=O)[C@@H](Cc2ccc3ccccc3c2)NC(=O)[C@H](CCCNC(=N)N)NC(=O)[C@H](CCCNC(=N)N)NC(=O)[C@H](CCC(N)=O)NC1=O [Cyclorasin 12A, (Arg-Arg-nal-Arg-Fpa-Arg-Trp-Arg-ala-Gln)] (cyclo(RR[d2Nal]R[Phe(4-F)]RWR[dA]Q))
anti-proliferative activity against lung cancer cells (in words) (H1299 lung cancer cells): weak anti-proliferative activity | cell permeability / intracellular fluorescence (A549 lung cancer cells): cell permeable

CC[C@@H]1NC(=O)[C@@H](Cc2ccccc2)NC(=O)[C@H](Cc2ccc(F)cc2)NC(=O)[C@@H](CC(N)=O)NC(=O)[C@H](Cc2ccc(F)cc2)NC(=O)[C@H](CCCNC(=N)N)NC(=O)[C@@H](Cc2ccc3ccccc3c2)NC(=O)[C@H](CCCNC(=N)N)NC(=O)[C@H](CCCNC(=N)N)NC(=O)[C@H](CCC(=O)N[C@@H](CCCCNC(=S)Nc2ccc3c(c2)C(=O)OC32c3ccc(O)cc3Oc3cc(O)ccc32)C(N)=O)NC1=O [Cyclorasin 13A] (cyclo([Abu]E(Lys(5-FITC)NH2)RR[d2Nal]R[Phe(4-F)][dN][Phe(4-F)][dF]))
Kd (K-Ras(G12V)): 1 ± 0.2 µM

CCCC[C@H]1NC(=O)[C@H](Cc2ccc(F)cc2)NC(=O)[C@H](CCCNC(=N)N)NC(=O)[C@@H](Cc2ccc3ccccc3c2)NC(=O)[C@H](CCCCNC(=S)Nc2ccc3c(c2)C(=O)OC32c3ccc(O)cc3Oc3cc(O)ccc32)NC(=O)[C@H](CCCNC(=N)N)NC(=O)[C@H](CCCNC(=N)N)NC(=O)[C@@H](C)NC(=O)[C@H]([C@@H](C)O)NC(=O)[C@H](Cc2c[nH]c3ccccc23)NC(=O)[C@H](CCC(N)=O)NC1=O [FITC-9A5] (cyclo(K(FITC)[d2Nal]R[Phe(4-F)][dNle]QWT[dA]RR))
Kd (H-Ras(WT)): 500 nM | Kd (Ras-GPPNP): 640 nM | Kd (bovine serum albumin): 30000 nM and 31000 nM | Kd (Ras-GTP): 440 nM | Kd (Rac1): 250 nM | Kd (RhoA): 180 nM | cell permeability / intracellular fluorescence (A549 lung cancer cells): intense, defuse fluorescence throughout the cytoplasm | Kd (Ras-GDP): 2500 nM
